Tested on: RCJ cells
Assay: Tumor formation in nude mice injected with RCJ cells, doxycycline in drinking water
Format: in vivo
Settings: doxycycline 25 μg/ml in drinking water, up to 60 days
Protocol: 6-8-Week old nude mice (BalbC/Nu) were injected subcutaneously with equivalent number of parental RCJ or L8 cells or FGFR3 expressing cell lines and were followed for tumor formation for up to 60 days after injections. Inhibition of FGFR expression in vivo was done by adding 25 μg/ml doxycycline into the drinking water of mice which had previously received the RCJ cell clones by injection. Nude mice were injected subcutaneously with equivalent numbers of parental RCJ cells (FIGS. 9 A-C, C2, squares) or wild type or mutant FGFR3 expressing RCJ cell lines (W11, circles in FIG. 9A, M15, triangles in FIG. 9A, W2, triangles in FIG. 9B, M16, circles in FIG. 9B) and tumor surface areas were evaluated for up to 60 days after injection (ordinates). […] Triangles, C2 (control) clone plus doxycycline, circles, W11 clone, filled squares, W11 clone plus doxycycline Doxycycline was used in animals because the former is a potent high affinity derivative of tetracycline. […] The inhibition of tumor formation of RCJ cells was highly correlated with the expression levels of FGFR3. In order to determine whether inhibition of tumor formation reflects the expression level of FGFR3, we have performed an assay where we tried to suppress the expression of FGFR3 in vivo by the addition of doxycycline to the drinking water of injected mice.

## C[C@H]1c2cccc(O)c2C(=O)C2=C(O)[C@]3(O)C(=O)C(C(N)=O)=C(O)[C@@H](N(C)C)[C@@H]3[C@@H](O)[C@@H]21 [doxycycline]
  effect on tumor formation, mice injected with the parental RCJ line (C2): no significant effect

From US20040014024A1, “Screening assay for antagonists of FGFR-mediated malignant cell transformation and tumor formation” (priority 1999, published 2004)
